Laboratory results taken from patent US5039665A, “Use of fructose-1,6-diphosphate for treating myocardial infarction” (priority 1990, dated 1991).

Assays:
whole blood = assay: blood preservation: ATP content of refrigerated blood; design: species or system dog
Description: Blood specimens taken from a number of dogs were mixed with FDP in the following proportions: F1-25mg of FDP per 10ml of blood and F2-50mg of FDP per 10ml of blood. The same proportion was prepared with glucose: G1-25mg of glucose per 10ml of blood and G2-50mg of glucose per 10ml of blood. The blood specimens were refrigerated for 24 hours and then the blood was tested for ATP content after 24 hours 14 days.

heart preparation = settings: infusion of Locke's solution plus sugar; cited from earlier work
[1] = tested on: dogs with acute regional myocardial ischemia; assay: acute regional myocardial ischemia in dogs (coronary artery occlusion); type: in vivo, dog; settings: FIG. 3; ischemic and normally perfused myocardium
[2] = tested on: dogs in surgical anesthesia; assay: anesthetic requirement to maintain surgical anesthesia in dogs; type: in vivo, dog; settings: FDP n=104 vs controls n=103
dog WBC = assay: carbohydrate metabolism of dog white blood cells in vitro; type: cell-based
Description: The tests were also conducted to investigate the effect of FDP on white blood cells (WBC) on metabolism in vitro. […] It was experimentally assessed whether FDP can stimulate the carbohydrate metabolism of these cells at rest. A similar phenomenon observed for normal human erythrocytes, sickle cells and dog erythrocytes. From healthy humans and dogs, the white blood cells were separated and incubated at 37° Celsius for various periods of time with FDP, glucose and normal saline. At the end of incubation, ATP and intermediates of the glycolytic pathway were assessed. […] The pyruvic acid concentration in dog WBC incubated with FDP was 10 times greater than those incubated in glucose while those for the human WBC, this difference was of much lesser degree (X2). The dihydroxyacetone (DHA) in the human and canine WBC was 5 to 10 times greater in the FDP incubated than in the glucose ones.

rabbit ileum = assay: force of contraction of isolated rabbit ileum; settings: added to perfusate
From the text: (§1) To allow for a broader and more complete interpretation of the results, a small paragraph will be devoted to the ability of FDP to cross the cellular membranes.

[3] = FDP distribution after intracardiac administration in rat; type: in vivo; settings: 10 min after administration
From the text: as §1

[4] = plasma lactic acid after intravenous FDP in dogs; type: in vivo, dog
From the text: as §1

[5] = tissue ATP, lactate, FDP and trioses after IV FDP; type: in vivo; settings: IV administration
From the text: as §1

acute lethality in dogs = settings: dog, in vivo; administered 500 mg/min in dogs; approximately
From the text: From an energetic point of view the advantage of using FDP as the initial substrate is that the net yield of the anaerobic metabolism of one mole of glucose is 2 ATP, while if one mole of FDP is metabolized in the same conditions it will produce 4 ATP because there is no phosphorylation of glucose and fructose-6-phosphate, reactions which require utilization of ATP. On the other hand, while doubling the quantity of ATP produced, lactate production remains the same as though one mole of glucose had been metabolized. It is obvious that in order to obtain results in the direction of making usuable energy from FDP, it is necessary to administer a large quantity. (The LD50 of FDP when administered 500 mg/min in dogs is approximately 5.8-6 g/kg.)

[6] = tested on: experimental animals and man; assay: antishock activity in experimental animals and in man; settings: in vivo
[7] = tested on: dogs anesthetized with Surital; assay: analeptic effect of intra-carotid administration on Surital (thiamylal) anesthesia in dogs; type: in vivo, dog; settings: systemic administration
[8] = 25mg per 10ml of blood, 24 hours
[9] = 25mg per 10ml of blood, 48 hours
[10] = 25mg per 10ml of blood, 7 days, Incubate 30' 37°
[11] = 50mg per 10ml of blood, 24 hours
[12] = 50mg per 10ml of blood, 48 hours
[13] = 50mg per 10ml of blood, 7 days, Incubate 30' 37°
[14] = 5 g of FDP IV over 10 min, at one hour

SMILES	ATP (whole blood; [8])	ATP (whole blood; [9])	ATP (whole blood; [10])	ATP (whole blood; 25mg per 10ml of blood, 9 days)	ATP (whole blood; [11])	ATP (whole blood; [12])	ATP (whole blood; [13])	ATP (whole blood; 50mg per 10ml of blood, 9 days)	ATP (whole blood; 14 days, Incubate 40' 37°)	ATP (whole blood; 14 days, No incubation)	other results
O=C[C@H](O)[C@@H](O)[C@H](O)[C@H](O)CO [glucose, reference compound]	0.22 m mole/ml	0.32 m mole/ml	0.28 m mole/ml	0.26 m mole/ml	0.44 m mole/ml	0.34 m mole/ml	0.18 m mole/ml	0.40 m mole/ml	0.88 m mole/ml	0.40 m mole/ml	amplitude and frequency of heart beats, lactic acid, pH and potassium during recovery (heart preparation): no significant difference
O=C(COP(=O)(O)O)[C@@H](O)[C@H](O)[C@H](O)COP(=O)(O)O [FDP, fructose-1,6-diphosphate]	2.32 m mole/ml	2.34 m mole/ml	0.70 m mole/ml	0.82 m mole/ml	3.34 m mole/ml	2.08 m mole/ml	2.16 m mole/ml	2.04 m mole/ml	1.3 m mole/ml	1.22 m mole/ml	ATP and CP content in the myocardium [1]: increase of ATP and CP in ischemic myocardium, but also in the normally perfused heart muscle; tissue lactic acid concentration [1]: The same phenomenon was observed for the tissue lactic acid concentration; anesthetic required [2]: twice as much anesthetic; effect on carbohydrate metabolism (dog WBC): profound stimulating effect on the carbohydrate metabolism; concentration dependence of ATP production (dog WBC; 5 to 50 mg/ml FDP, no AMP or ADP): independent of the concentration (from 5 to 50 mg/ml), but rather a function of the incubation time; concentration dependence of ATP increase (dog WBC; AMP or ADP added): the increase of ATP becomes a function of the FDP concentration; pyruvic acid concentration, FDP versus glucose (dog WBC; dog WBC): 10 times; force of contraction (rabbit ileum): increases the force of contraction; concentration of FDP in the liver versus plasma [3]: five; plasma lactic acid [4, 14]: 16.45±2.16 mg %; plasma lactic acid increase [4, 14]: 21/2; plasma lactic acid ([4]; before FDP (baseline)): 6.13±1.7 mg %; ATP, lactate, and FDP in tissues [5]: increase of ATP, lactate, and FDP in all tissues that we have studied; trioses in the Embden-Meyerhof pathway [5]: increases in the trioses; LD50 (acute lethality in dogs): 5800 to 6000 mg/kg; antishock activity [6]: profound antishock activity in experimental animals and in man; analeptic effect [7]: The same analeptic effect, but to a much lesser degree
